The target in this assay is T1, 5-Lipoxygenase (Homo sapiens, UniProt P09917).
T1 construct: endogenous in cells; host or cells: human heparinized whole blood (blood leukocytes), stimulated with calcium ionophore A23187
T1 sequence (P09917 1-674): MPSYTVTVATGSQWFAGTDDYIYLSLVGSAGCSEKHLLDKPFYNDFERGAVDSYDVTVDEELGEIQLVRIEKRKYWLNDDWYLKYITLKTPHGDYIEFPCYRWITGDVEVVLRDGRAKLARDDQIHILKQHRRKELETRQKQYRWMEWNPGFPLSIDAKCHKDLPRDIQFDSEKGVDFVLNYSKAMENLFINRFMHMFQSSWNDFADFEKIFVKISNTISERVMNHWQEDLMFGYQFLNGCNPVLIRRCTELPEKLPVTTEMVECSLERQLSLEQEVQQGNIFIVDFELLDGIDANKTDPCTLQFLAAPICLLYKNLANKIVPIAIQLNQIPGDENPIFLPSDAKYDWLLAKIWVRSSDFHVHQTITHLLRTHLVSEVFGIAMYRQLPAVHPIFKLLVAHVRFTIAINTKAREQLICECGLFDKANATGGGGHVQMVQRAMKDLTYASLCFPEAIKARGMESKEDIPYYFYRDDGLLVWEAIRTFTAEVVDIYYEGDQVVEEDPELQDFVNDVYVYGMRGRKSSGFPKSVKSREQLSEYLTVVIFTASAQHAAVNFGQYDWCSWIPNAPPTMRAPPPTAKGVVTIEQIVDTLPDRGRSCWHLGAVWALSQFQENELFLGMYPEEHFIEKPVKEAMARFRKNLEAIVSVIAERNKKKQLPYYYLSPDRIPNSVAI
In words: Inhibition of calcium ionophore-induced LTB4 biosynthesis in human whole blood. The class given is cell-based. Particulars: A23187 8.3 μM; for IC50: human heparinized whole blood, 15 min preincubation at 37° C., 30 min, LTB4 by radioimmunoassay, read-out: IC50, in vitro inhibitory potency against 5-lipoxygenase from stimulated LTB4 formation in human whole blood. The method, then: Inhibition of leukotriene biosynthesis was evaluated in an assay, involving calcium ionophore-induced LTB4 biosynthesis expressed human whole blood. Human heparinized whole blood was preincubated with test compounds or vehicle for 15 min at 37° C. followed by calcium ionophore A23187 challenge (final concentration of 8.3 μM) and the reaction terminated after 30 min by adding two volumes of methanol containing prostaglandin B2 as an internal recovery standard. The methanol extract was analyzed for LTB4 using a commercially available radioimmunoassay.

Where [1] appears, read: human whole blood, read-out: % inhibition of stimulated LTB4 formation in human whole blood.

Consider `COC1(/C=C/COCc2ccc3ccccc3c2)CCOCC1` [Example 3], for which the IC50 came out at 700 nM.
For `COC1(/C=C/COCc2ccc3c(ccc(=O)n3C)c2)CCOCC1` [Example 6, 4-methoxy-4-[3-((1,2-dihydro-1-methyl-2-oxoquinolin-6-yl)methoxy)-trans-prop-1-enyl]tetrahydropyran], under setting [1], the inhibition at 0.39 µM was found to be 51%.
On to `COC1(/C=C/CSc2ccc3ccccc3c2)CCOCC1` [Example 19, 4-methoxy-4-[3-(napth-2-ylthioxy)-trans-prop-1-enyl]tetrahydropyran], for which the inhibition at 0.1 µM (at 0.10 μM, human whole blood, read-out: % inhibition of stimulated LTB4 formation in human whole blood) turned out to be 34%.
For `COC1(/C=C/C(=O)NCc2ccc3ccccc3c2)CCOCC1` [Example 20, 3-(4-methoxytetrahydropyran-4-yl)-N-((napth-2-yl)methyl)-trans-propionyl amide], the IC50 worked out at 260 nM.
Still for that read-out and setting: next, `COC1(CCCOCc2ccc3ccccc3c2)CCOCC1` [Example 5, 4-methoxy-4-[3-((napth-2yl)methoxy)-prop-1-yl]tetrahydropyran]: 1500 nM.
`COC1(/C=C/C(C)OCc2ccc3ccccc3c2)CCOCC1` (stereo not drawn) [Example 4, 4-methoxy-4-[3-methyl-3-((napth-2yl)methoxy)- trans-prop-1-enyl]tetrahydropyran]: the inhibition at 12.5 µM under setting [1] is 99%.
`COC1(C#CCOCc2ccc3ccccc3c2)CCOCC1` [Example 1, 4-methoxy-4-[3-((napth-2-yl)methoxy)-prop-1-ynyl]tetrahydropyran]: the IC50 turned out to be 3800 nM.
With `COC1(/C=C/COCC#Cc2ccccn2)CCOCC1` [Example 22, 4-methoxy-4-[3-((2-(pyrid-2-yl)ethynyl)methoxy)-trans-propen-1-yl]tetrahydropyran], under setting [1], the inhibition at 12.5 µM is 18%.
On the same count and under the same terms, as for `COC1(C#CC(C)OCc2ccc3ccccc3c2)CCOCC1` (centres unmarked) [Example 2, 4-methoxy-4-[3-methyl-3-(((napth-2yl)methoxy))-prop-1-ynyl]tetrahydropyran], the figure is 95%.
As to `COC1(/C=C/COCc2ccc(-c3ccccc3)cc2)CCOCC1` [Example 8, 4-methoxy-4-[3-((4-phenylphen-1-yl)methoxy)-trans-prop-1-enyl]tetrahydropyran], the inhibition at 12.5 µM under setting [1] came to 11%.
With `COC1(/C=C/C(=O)NCc2ccc3c(ccc(=O)n3C)c2)CCOCC1` [Example 21], the inhibition at 0.39 µM under setting [1] is 50%.

Broadly, the IC50 is the point on the concentration scale where inhibition reaches its midpoint. In general, inhibition refers to the drop in the measured response relative to a control, in per cent.

Values taken from patent US5350765A, “Ether-containing inhibitors of 5-lipoxygenase” (Abbott Laboratories, priority 1993, dated 1994).
